Measurements reported in ChEMBL document CHEMBL4831528, “Discovery of Novel Pterostilbene-Based Derivatives as Potent and Orally Active NLRP3 Inflammasome Inhibitors with Inflammatory Activity for Colitis” (J Med Chem, 2021).
Activity calls are given as the source filed them. The rule behind the calls is not given here.

How the values were obtained:
[1] = molecular target: NACHT, LRR and PYD domains-containing protein 3 (Mus musculus) (UniProt Q8R4B8); test: Inhibition of NLRP3 inflammasome activation in LPS-stimulated mouse bone marrow-derived macrophages assessed as reduction in IL-1beta secretion at 1 to 4 uM preincubated for 30 mins followed by nigericin addition and measured after 0.5 hrs by Western blot analysis; assay type: tissue-based; conditions: Macrophage, dose 1-4 µM
NACHT, LRR and PYD domains-containing protein 3 (Mus musculus), sequence (Q8R4B8 whole entry, the tested form may be a part): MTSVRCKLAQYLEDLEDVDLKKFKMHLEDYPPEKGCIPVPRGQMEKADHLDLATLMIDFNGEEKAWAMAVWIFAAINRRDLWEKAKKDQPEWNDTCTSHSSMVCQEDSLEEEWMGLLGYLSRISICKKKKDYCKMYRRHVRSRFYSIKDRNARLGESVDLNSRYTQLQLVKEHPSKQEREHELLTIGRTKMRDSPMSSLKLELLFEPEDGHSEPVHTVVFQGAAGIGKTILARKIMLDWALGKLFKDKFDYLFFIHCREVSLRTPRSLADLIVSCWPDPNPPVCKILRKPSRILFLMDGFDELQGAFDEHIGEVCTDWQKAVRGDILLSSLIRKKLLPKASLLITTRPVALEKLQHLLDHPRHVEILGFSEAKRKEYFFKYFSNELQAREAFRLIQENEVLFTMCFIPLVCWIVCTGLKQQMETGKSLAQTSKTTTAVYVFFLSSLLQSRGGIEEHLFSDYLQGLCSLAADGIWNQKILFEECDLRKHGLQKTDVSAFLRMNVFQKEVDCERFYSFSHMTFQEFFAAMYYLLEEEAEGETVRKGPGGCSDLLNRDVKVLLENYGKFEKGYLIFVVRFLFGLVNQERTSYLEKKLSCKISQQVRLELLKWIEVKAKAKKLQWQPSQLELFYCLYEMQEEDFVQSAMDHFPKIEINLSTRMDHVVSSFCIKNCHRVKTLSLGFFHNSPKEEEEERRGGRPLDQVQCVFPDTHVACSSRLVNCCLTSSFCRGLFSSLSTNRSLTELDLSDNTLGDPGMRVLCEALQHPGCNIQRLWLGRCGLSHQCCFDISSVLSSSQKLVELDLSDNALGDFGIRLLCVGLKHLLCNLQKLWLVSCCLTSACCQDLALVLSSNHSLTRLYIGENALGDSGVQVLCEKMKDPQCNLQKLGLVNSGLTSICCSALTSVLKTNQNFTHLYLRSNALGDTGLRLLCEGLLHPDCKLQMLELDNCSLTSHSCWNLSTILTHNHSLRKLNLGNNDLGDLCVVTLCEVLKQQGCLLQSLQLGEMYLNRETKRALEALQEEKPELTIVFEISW

BMDM [2] = test: Effect on pro-caspase1 expression in LPS-stimulated mouse bone marrow-derived macrophages at 0.5 to 2 uM preincubated for 30 mins followed by nigericin addition and measured after 30 mins by Western blot analysis; assay type: functional, tissue-based; conditions: dose 0.5-2 µM, time 60.0 min
[3] = Half life in human liver microsomes preincubated for 5 mins followed by NADPH addition and measured after 5 to 60 mins by LC-MS/MS analysis; assay type: ADME, Microsome
[4] = molecular target: NACHT, LRR and PYD domains-containing protein 3 (Mus musculus) (UniProt Q8R4B8); test: Inhibition of NLRP3 inflammasome activation in LPS-stimulated mouse bone marrow-derived macrophages assessed as reduction in pro IL-1beta secretion in cell lysate at 2 uM preincubated for 30 mins followed by ATP addition and measured after 0.5 hrs by Western blot analysis; assay type: subcellular; conditions: Macrophage, time 60.0 min
[5] = molecular target: NACHT, LRR and PYD domains-containing protein 3 (Mus musculus) (UniProt Q8R4B8); test: Inhibition of NLRP3 inflammasome activation in LPS-stimulated mouse bone marrow-derived macrophages assessed as reduction in ILbeta secretion at 2 uM preincubated for 30 mins followed by nigericin addition and measured after 0.5 hrs by ELISA; assay type: tissue-based; conditions: Macrophage, time 60.0 min
[6] = molecular target: NLR family CARD domain-containing protein 4 (Mus musculus) (UniProt Q3UP24); test: Inhibition of NLRC4 inflammasome activation in LPS-stimulated mouse bone marrow-derived macrophages assessed as reduction in IL-1beta secretion at 2 uM preincubated for 30 mins followed by Salmonella addition and measured after 4 hrs by ELISA; assay type: tissue-based; conditions: Macrophage, time 4.5 hrs
NLR family CARD domain-containing protein 4 (Mus musculus), sequence (Q3UP24 whole entry, the tested form may be a part): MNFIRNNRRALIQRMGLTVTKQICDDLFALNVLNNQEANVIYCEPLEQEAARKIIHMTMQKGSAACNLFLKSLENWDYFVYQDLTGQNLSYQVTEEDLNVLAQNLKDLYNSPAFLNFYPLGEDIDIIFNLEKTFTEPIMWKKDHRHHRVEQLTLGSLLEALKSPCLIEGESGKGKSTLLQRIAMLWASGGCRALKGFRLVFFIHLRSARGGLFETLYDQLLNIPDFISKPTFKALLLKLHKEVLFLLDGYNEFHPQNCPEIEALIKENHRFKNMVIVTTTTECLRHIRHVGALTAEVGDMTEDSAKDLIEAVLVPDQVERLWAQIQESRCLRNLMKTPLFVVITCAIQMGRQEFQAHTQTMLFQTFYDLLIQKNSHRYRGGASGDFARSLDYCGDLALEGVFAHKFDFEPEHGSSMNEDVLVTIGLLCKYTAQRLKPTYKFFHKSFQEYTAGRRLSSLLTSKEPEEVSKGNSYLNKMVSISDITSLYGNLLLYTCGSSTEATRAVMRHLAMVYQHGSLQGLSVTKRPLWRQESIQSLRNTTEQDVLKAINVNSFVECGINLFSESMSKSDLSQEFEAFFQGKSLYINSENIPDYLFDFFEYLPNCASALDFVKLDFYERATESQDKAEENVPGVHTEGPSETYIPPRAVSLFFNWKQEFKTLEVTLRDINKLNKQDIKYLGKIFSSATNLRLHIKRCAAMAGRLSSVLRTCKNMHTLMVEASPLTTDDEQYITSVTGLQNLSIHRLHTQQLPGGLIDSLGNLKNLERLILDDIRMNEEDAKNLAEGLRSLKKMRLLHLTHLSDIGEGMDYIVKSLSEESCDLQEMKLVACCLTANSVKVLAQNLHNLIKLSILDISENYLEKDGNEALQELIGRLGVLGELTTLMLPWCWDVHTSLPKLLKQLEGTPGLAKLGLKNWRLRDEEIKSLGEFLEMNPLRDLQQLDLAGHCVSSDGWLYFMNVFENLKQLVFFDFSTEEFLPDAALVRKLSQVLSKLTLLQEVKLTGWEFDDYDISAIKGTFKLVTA

[7] = molecular target: NACHT, LRR and PYD domains-containing protein 3 (Mus musculus) (UniProt Q8R4B8); test: Binding affinity to NLRP3 in mouse J774A1 cells assessed as thermal stabilization at 50 uM incubated for 30 mins by cellular thermal shift assay; assay type: cell-based; conditions: J774.A1
[8] = Intrinsic clearance in mouse liver microsomes preincubated for 5 mins followed by NADPH addition and measured after 5 to 60 mins by LC-MS/MS analysis; assay type: ADME, Microsome; conditions: time 5-60 min, read-out: CLH
[9] = molecular target: NACHT, LRR and PYD domains-containing protein 3 (Homo sapiens, UniProt Q96P20); test: Binding affinity to His-GFP fused tagged NLRP3 (unknown origin) expressed in HEK293T assessed as thermal stabilization at 10 uM incubated for 30 mins by cellular thermal shift assay; assay type: cell-based
NACHT, LRR and PYD domains-containing protein 3, sequence (Q96P20 whole entry, the tested form may be a part): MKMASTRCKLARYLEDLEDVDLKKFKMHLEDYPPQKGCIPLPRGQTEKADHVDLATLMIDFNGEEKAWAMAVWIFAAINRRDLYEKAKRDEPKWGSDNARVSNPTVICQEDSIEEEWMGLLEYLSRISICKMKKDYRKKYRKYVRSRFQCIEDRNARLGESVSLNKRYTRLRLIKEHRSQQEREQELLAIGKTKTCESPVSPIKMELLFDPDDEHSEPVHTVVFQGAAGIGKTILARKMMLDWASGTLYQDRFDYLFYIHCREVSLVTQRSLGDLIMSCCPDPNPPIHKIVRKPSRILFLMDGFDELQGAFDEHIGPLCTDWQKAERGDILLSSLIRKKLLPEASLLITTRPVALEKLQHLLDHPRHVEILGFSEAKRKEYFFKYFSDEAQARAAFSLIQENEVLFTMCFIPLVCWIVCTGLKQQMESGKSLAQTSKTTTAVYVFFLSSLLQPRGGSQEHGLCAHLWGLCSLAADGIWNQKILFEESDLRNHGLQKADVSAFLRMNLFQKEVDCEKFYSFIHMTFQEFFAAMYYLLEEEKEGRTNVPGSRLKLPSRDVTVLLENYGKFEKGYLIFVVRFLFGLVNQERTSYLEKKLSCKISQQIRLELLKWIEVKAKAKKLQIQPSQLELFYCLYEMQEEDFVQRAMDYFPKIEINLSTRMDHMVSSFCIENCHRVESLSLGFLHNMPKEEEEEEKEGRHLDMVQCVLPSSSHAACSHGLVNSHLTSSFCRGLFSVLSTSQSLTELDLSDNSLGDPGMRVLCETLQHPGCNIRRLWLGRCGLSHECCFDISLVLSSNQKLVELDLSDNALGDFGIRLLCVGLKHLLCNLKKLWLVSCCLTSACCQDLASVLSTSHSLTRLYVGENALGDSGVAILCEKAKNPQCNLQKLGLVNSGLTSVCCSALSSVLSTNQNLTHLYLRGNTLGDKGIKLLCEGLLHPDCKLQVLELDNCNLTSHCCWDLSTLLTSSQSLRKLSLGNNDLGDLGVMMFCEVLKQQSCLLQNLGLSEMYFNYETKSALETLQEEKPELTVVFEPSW

[10] = Toxicity in C57BL/6 mouse assessed as induction of anorexia at 20 to 40 mg/kg, ig administered for 28 days; assay type: organism-based; conditions: in vivo, po, 672 h, dose 20-40 mg/kg, time 28 day
[11] = molecular target: NACHT, LRR and PYD domains-containing protein 3 (Mus musculus) (UniProt Q8R4B8); test: Inhibition of NLRP3 inflammasome activation in LPS-stimulated mouse bone marrow-derived macrophages assessed as reduction in cleaved IL-1beta secretion in supernatant at 2 uM preincubated for 30 mins followed by nigericin addition and measured after 0.5 hrs by Western blot analysis; assay type: tissue-based; conditions: Macrophage, time 60.0 min
[12] = molecular target: NACHT, LRR and PYD domains-containing protein 3 (Mus musculus) (UniProt Q8R4B8); test: Inhibition of NLRP3 inflammasome activation in LPS-stimulated mouse bone marrow-derived macrophages assessed as reduction in caspase1 p20 secretion preincubated for 30 mins followed by nigericin addition and measured after 30 mins by Western blot analysis; assay type: tissue-based; conditions: Macrophage, time 60.0 min
[13] = Toxicity in C57BL/6 mouse assessed as effect on spleen at 20 to 40 mg/kg, ig administered for 28 days; assay type: organism-based; conditions: in vivo, po, 672 h, dose 20-40 mg/kg, time 28 day
Mus musculus [14] = test: In vivo inhibition of NLRP3 inflammasome activation in C57BL/6 mouse model of DSS-induced ulcerative colitis assessed as reduction in IL-1beta expression at 10 to 20 mg/kg, ig administered for 7 days by ELISA; assay type: functional, organism-based; conditions: dose 10-20 mg/kg, time 7.0 day
Mus musculus [15] = test: Anti-inflammatory activity in C57BL/6 mouse DSS-induced acute ulcerative colitis assessed as reduction in disease index at 10 to 20 mg/kg, ig administered for 7 days; assay type: functional, organism-based; conditions: dose 10-20 mg/kg, time 7.0 day
[16] = Toxicity in C57BL/6 mouse assessed as effect on heart at 20 to 40 mg/kg, ig administered for 28 days; assay type: organism-based; conditions: in vivo, po, 672 h, dose 20-40 mg/kg, time 28 day
[17] = Inhibition of ROS production in LPS-stimulated mouse bone marrow-derived macrophages at 1 to 4 uM preincubated for 30 mins followed by nigericin addition and measured after 0.5 hrs by Western blot analysis; conditions: Macrophage, dose 1-4 µM, time 60.0 min
[18] = molecular target: NACHT, LRR and PYD domains-containing protein 3 (Mus musculus) (UniProt Q8R4B8); test: Inhibition of NLRP3 inflammasome activation in LPS-stimulated mouse bone marrow-derived macrophages assessed as reduction in NLRP3/ASC protein-protein interaction preincubated for 30 mins followed by nigericin addition and measured after 30 mins by immunoprecipitation method; assay type: tissue-based; conditions: Macrophage, time 60.0 min
[19] = Hepatic clearance in human liver microsomes preincubated for 5 mins followed by NADPH addition and measured after 5 to 60 mins by LC-MS/MS analysis; assay type: ADME, Microsome; conditions: time 5-60 min
Mus musculus [20] = test: Downregulation of IL-1beta expression in colon of C57BL/6 mouse model of DSS-induced ulcerative colitis at 10 to 20 mg/kg, ig administered for 7 days by Western blot analysis; assay type: functional, organism-based; conditions: dose 10-20 mg/kg, time 7.0 day
BMDM [21] = test: Effect on pro-IL1beta expression in LPS-stimulated mouse bone marrow-derived macrophages at 0.5 to 2 uM preincubated for 30 mins followed by nigericin addition and measured after 30 mins by Western blot analysis; assay type: functional, tissue-based; conditions: dose 0.5-2 µM, time 60.0 min
Mus musculus [22] = test: Protection against DSS-induced acute ulcerative colitis in C57BL/6 mouse assessed as reduction in body weight at 10 to 20 mg/kg, ig administered for 7 days; assay type: functional, organism-based; conditions: dose 10-20 mg/kg, time 7.0 day
[23] = AUC (0 to infinity) in mouse at 20 mg/kg, po measured up to 24 hrs by LC-MS/MS analysis; assay type: ADME, organism-based; set-up: route oral, dose 20 mg/kg, time <=24; conditions: in vivo
[24] = Toxicity in C57BL/6 mouse assessed as effect on liver at 20 to 40 mg/kg, ig administered for 28 days; assay type: organism-based; conditions: in vivo, po, 672 h, dose 20-40 mg/kg, time 28 day
[25] = Toxicity in C57BL/6 mouse assessed as weight gain at 20 to 40 mg/kg, ig administered for 28 days; assay type: organism-based; conditions: in vivo, po, 672 h, dose 20-40 mg/kg, time 28 day
[26] = molecular target: NACHT, LRR and PYD domains-containing protein 3 (Mus musculus) (UniProt Q8R4B8); test: Inhibition of NLRP3 inflammasome activation in LPS-stimulated mouse bone marrow-derived macrophages assessed as reduction in caspase1 p20 in supernatant at 2 uM preincubated for 30 mins followed by MSU addition and measured after 0.5 hrs by Western blot analysis; assay type: tissue-based; conditions: Macrophage, time 60.0 min
[27] = molecular target: NACHT, LRR and PYD domains-containing protein 3 (Mus musculus) (UniProt Q8R4B8); test: Inhibition of NLRP3 inflammasome activation in LPS-stimulated mouse bone marrow-derived macrophages assessed as reduction in pro caspase1 in cell lysate at 2 uM preincubated for 30 mins followed by MSU addition and measured after 0.5 hrs by Western blot analysis; assay type: subcellular; conditions: Macrophage, time 60.0 min
[28] = Cmax in mouse at 20 mg/kg, po measured up to 24 hrs by LC-MS/MS analysis; assay type: ADME, organism-based; set-up: route oral, dose 20 mg/kg, time <=24; conditions: in vivo
Mus musculus [29] = test: Downregulation of phosphorylated p65 expression in colon of C57BL/6 mouse model of DSS-induced ulcerative colitis at 10 to 20 mg/kg, ig administered for 7 days by Western blot analysis; assay type: functional, organism-based; conditions: dose 10-20 mg/kg, time 7.0 day
[30] = molecular target: NACHT, LRR and PYD domains-containing protein 3 (Mus musculus) (UniProt Q8R4B8); test: Inhibition of NLRP3 inflammasome activation in LPS-stimulated mouse bone marrow-derived macrophages assessed as reduction in ILbeta secretion at 2 uM preincubated for 30 mins followed by ATP addition and measured after 0.5 hrs by ELISA; assay type: tissue-based; conditions: Macrophage, time 60.0 min
[31] = Half life in mouse liver microsomes preincubated for 5 mins followed by NADPH addition and measured after 5 to 60 mins by LC-MS/MS analysis; assay type: ADME, Microsome; conditions: time 5-60 min

- inhibition [1]: Active
- half-life [3]: 68.1 min
- inhibition [4]: Active
- inhibition [5]: Active
- inhibition [6]: inactive
- Activity [7]: Active
- microsomal CLint [8]: 32 µL/min/mg
- Activity [9]: Active
- inhibition [11]: Active
- inhibition [12]: Dose-Dependent Effect
- inhibition [17]: inactive
- inhibition [18]: Dose-Dependent Effect
- CLhep predicted [19]: 11 mL/min/kg
- AUC [23]: 845.93 µg·h/L
- inhibition [26]: Active
- inhibition [27]: Active
- Cmax [28]: 95.1 ng/mL
- inhibition [30]: Active
- half-life [31]: 43.3 min
Compound: COc1cc(/C=C/c2ccc(NC(=O)C3CC3)cc2)c(/C=C/[N+](=O)[O-])c(OC)c1
- Activity (BMDM [2]): inactive
- Activity [10]: Non-Toxic
- Activity [13]: Non-Toxic
- inhibition (Mus musculus [14]): Active
- Activity (Mus musculus [15]): Active
- Activity [16]: Non-Toxic
- Activity (Mus musculus [20]): Active
- Activity (BMDM [21]): inactive
- Activity (Mus musculus [22]): Active
- Activity [24]: Non-Toxic
- Activity [25]: Non-Toxic
- Activity (Mus musculus [29]): Active
